From patent publication US20230048888A1, “USE OF TRIAZOLOTRIAZINE DERIVATIVE IN TREATMENT OF DISEASES” (ZHEJIANG VIMGREEN PHARMACEUTICALS, LTD., priority 2019, published 2023) come the findings set out here.

Data set [1] in a line: Stability of acetate crystal at 60° C. closed and 40° C./75% RH open, HPLC purity and XRPD. To be noted: for XPRD (crystal form after storage): 7 days; for Purity over 7 days (area %): initial purity 98.79 area %. The class given is physicochemical. On the procedure:
A certain amount of acetate crystal was held at 60° C. in a closed condition and at 40° C./75% RH in an open condition for a maximum of 7 days. Samples were taken on days 0, 3, and 7 and diluted with a diluent to about 0.3 mg/mL for HPLC purity testing. The solid samples were tested by XRPD to determine the crystal form.

Data set [2] deals with A20 tumor cells. Description: A20 murine lymphoma (B lymphocytes) homotransplantation model. The class given is in vivo, BALB/c mice. The note with it: for TGI (%): 50 mg/kg p.o. QD. On the procedure: A20 murine lymphoma (B lymphocyte) homotransplantation model is a classic pharmaceutical effect evaluation model for B lymphocyte cancer. It was constructed by subcutaneously inoculating homogeneous A20 tumor cells into the right ribs of female BALB/c mice by the same species. The test compounds were administrated to evaluate their inhibitory effects on tumor growth in the model.
A20 tumor cells were cultured in an RPMI 1640 medium containing inactivated 10% fetal bovine serum, 100 U/ml penicillin, 100 μg/ml streptomycin and 0.05 mM 2-mercaptoethanol in an incubator at 37° C. in the presence of 5% CO2; and after the cells grew all over, the tumor cells were divided and passaged in respective flasks every 3 to 4 days. The tumor cells in the logarithmic growth phase were used for in vivo inoculation of tumors.
The A20 tumor cells resuspended in a serum-free RPMI 1640 culture solution were inoculated subcutaneously at 3×10^5/100 μl to the right ribs of experimental animals. A total of 30 animals were inoculated. On the first day after tumor cell inoculation, 24 animals with a uniform body weight were selected in terms of body weight, and were grouped for dosage, with 12 animals in each group. The specific dosage regimen was carried out according to the experimental design.
Tumor volume: the tumor volume was measured 3 times a week with a vernier caliper, and the long and short diameters of the tumor were measured. The volume was calculated with a formula as follows:
volume=0.5×long diameter×short diameter^2.
Tumor growth inhibition rate (TGI, %)=(1−T/C)×100,
T/C(%)=(average tumor volume of treatment groups on the current day-average tumor volume of treatment groups on the initial day D0)/(average tumor volume of the control group on the current day-average tumor volume of the control group on the initial day D0)×100.
Statistical analysis of tumor volume was carried out between groups by the SPSS T-test.

Data set [3] concerns CT26 cells. As to the kind of experiment: CT26 murine colon cancer homotransplantation model. The class given is in vivo, BALB/c mice. On the procedure: The CT26 murine colon cancer homotransplantation model is a classic pharmaceutical effect evaluation model for colon cancer. It is constructed by subcutaneously inoculating CT26 to BALB/c mice. The test compounds were administrated to evaluate their inhibitory effects on tumor growth in the model.
CT26 cells were cultured in an RPMI1640 culture solution containing 10% fetal bovine serum. The CT26 cells in the exponential growth phase were collected and resuspended in PBS to a suitable concentration for subcutaneous tumor inoculation in mice.
Female mice were subcutaneously inoculated with 5×10^5 CT26 cells on the right side. The day of inoculation was defined as Day 0. On the second day (Day 1) of […] cell inoculation, the mice were administered randomly according to body weight.
Tumor proliferation rate, T/C %, was a percentage ratio of tumor volume or tumor weight between the treatment group and the control group at a certain time point. It was calculated with a formula was as follows:
T/C %=TTV/CTV×100% (TTV (TTV: the average TV of the treatment group at a specific time point;

With `CC(=O)O.Nc1nc(NCCc2ccc(NC3COC3)cc2)nc2nc(-c3ccco3)nn12` [Acetate of Compound 22, 2-(furan-2-yl)-N5-(4-(oxetane-3-ylamino)phenethyl)-[1,2,4]triazolo[1,5-a][1,3,5]triazine-5,7-diamine acetate], the “XPRD (crystal form after storage)” value is recorded as “Transformed” in data set [1] (40° C./75% RH open) and “Unchanged” in data set [1] (60° C. closed). Also, the “Purity over 7 days (area %)” value in data set [1] (40° C./75% RH open) came to 98.99 area %; in data set [1] (60° C. closed), 99.01 area %. In addition, in data set [1] (60° C. and 40° C./75% RH, up to 7 days), the “Degradation under test conditions” value is on record as “no significant degradation”.

Turning to `Nc1nc(NCCc2ccc(NC3COC3)cc2)nc2nc(-c3ccco3)nn12` [Compound 22, 2-(furan-2-yl)-N5-(4-(oxetan-3-ylamino)phenethyl)-[1,2,4]triazolo[1,5-a][1,3,5]triazine-5,7-diamine], the “Clinical abnormalities during the dosage” value in data set [2] (50 mg/kg p.o. QD 24 days) and in data set [3] (p.o. QD × 25 days) was “no obvious clinical abnormalities were observed” throughout. In addition, the “TGI (%)” value in data set [2] (Day 6 after tumor inoculation) is 11.9%; in data set [2] (Day 8), 8.4%; in data set [2] (Day 10), 7.0%; in data set [2] (Day 13), 16.5%; in data set [2] (Day 15) it was 29.4%; in data set [2] (Day 17), 32.6%. Besides, the “TGI (%)” value in data set [2] (Day 20) amounted to 28.5%; in data set [2] (Day 22) it was 36.4%; in data set [2] (Day 24), 35.6%; in data set [3] (Day 26, 100 mg/kg p.o. QD), 19%. Further, the “T/C (%)” value in data set [3] (Day 26, 100 mg/kg p.o. QD) was 81%. For the same compound, in data set [3] (Day 26, 100 mg/kg p.o. QD, in mm³), the Tumor volume is on record as 1988.56 ± 325.70.
